Measured values: patent US20240423971A1, “APPLICATION OF RIP2 INHIBITOR COMBINED WITH CHEMOTHERAPY DRUG” (NINGBO COMBIREG PHARMACEUTICAL TECHNOLOGY CO., LTD., priority 2021, published 2024)

Experiments:
melanoma (B16F10) = assay: Melanoma (B16F10) tumor-bearing model, GSK583 combined with PTX; format: in vivo, C57BL/6 mice; settings: GSK583 1 mg/kg
Procedure: Both of the test substances PTX (Sigma) and GSK583 (MCE) were prepared as a 20× DMSO stock solution, which was diluted with normal saline containing 5% (v/v) polyoxyethylene castor oil (Cremophor EL) to the administration concentration before use. Experimental animals and tumor strains: SPF grade male wild-type C57BL/6 mice, 6 to 8 weeks old, purchased from Beijing Vital River Laboratory Animal Technology Co., Ltd. Cells used in the experiment: murine melanoma cell line (B16-F10), purchased from ATCC. Mice were randomly divided into 4 groups with 8 mice in each group based on body weight according to the method shown in (A of FIG. 1 and B of FIG. 1), namely: (i) vehicle control group; (ii) GSK583 (1 mg/kg) group; (iii) PTX (10 mg/kg) group; (iv) GSK583 (1 mg/kg)+PTX (10 mg/kg) group. PTX, GSK583, and vehicle were administered intravenously once every 4 days for a total of 4 doses. The mice were subcutaneously inoculated with B16-F10 cells with a concentration of 2× 10^6 cells/mL and 0.1 mL/mouse, and the day of inoculation was recorded as DAY 0. The administration was started on DAY 1. During the administration, the animals were weighed every 2 days. The long diameter and short diameter of the tumor were measured with a vernier caliper. The tumor size was calculated by the formula: (½)×long diameter×(short diameter) 2. The experiment was terminated on DAY 15. After the mice were euthanized and dissected, the tumor was weighed and the tumor inhibition rate was calculated.

[1] = system: immune cells in tumor tissues of melanoma (B16F10) tumor-bearing model; assay: Flow cytometry detection of proportion of immune cells in tumor microenvironment of melanoma tumor-bearing mice; format: in vivo, C57BL/6 mice; settings: GSK583 1 mg/kg, PTX 10 mg/kg, combination vs vehicle, GSK583-alone
Procedure: Preparation of enzyme lysis buffer: 1 g of collagenase type IV (Sigma C5138), 100 mg of hyaluronidase (Sigma H6254), and 20,000 units of DNase type IV (Sigma D5025) were added to 80 mL of HBSS and mixed well. The mixture was then added with HBSS to make up a volume of 100 mL to obtain a 100×enzyme lysis buffer, which was filtered through a 0.22 μm filter membrane and stored at −20° C., and diluted with HBSS to 1× concentration before use.
Dissociation of tumor tissues: Tumor tissues were removed and weighed (0.04 to 1 g), then cut into small pieces of 2×2 mm with a scalpel, added with 2.5 mL of enzyme lysis mixture, and transferred to a gentleMACS C Tube (Miltenyi Biotec 130-096-334). The C Tube was inverted on a gentleMACS Dissociator (Miltenyi Biotec 130-093-235), and the program “gentleMACS Program m_impTumor_02” was run. The C Tube was removed from the gentleMACS Dissociator and incubated at 37° C. for 40 minutes. The C Tube was inverted on the gentleMACS Dissociator again, and the program “gentleMACS Program m_impTumor_03” was run. […]
Flow cytometry detection: After counting the dissociated tumor tissues, the cell concentration was adjusted, and 200 μL/well of cells (5 to 10×10^5 cells/well) were added to a 96 U-bottom plate. […] The cells were resuspended in 100 μL/well of cell staining buffer, and then detected by flow cytometry.

With CC(=O)O[C@H]1C(=O)[C@@]2(C)[C@H]([C@H](OC(=O)c3ccccc3)[C@]3(O)C[C@H](OC(=O)[C@H](O)[C@@H](NC(=O)c4ccccc4)c4ccccc4)C(C)=C1C3(C)C)[C@]1(OC(C)=O)CO[C@@H]1C[C@@H]2O [PTX, Paclitaxel] the “tumor weight at the end of the administration” value (melanoma (B16F10); B16-F10 in C57BL/6 mice, PTX 10 mg/kg i.v. every 4 days x4, DAY 15, vs control group) was “significantly and statistically lower than that of the control group”, the “growth rate of tumor volume” value (melanoma (B16F10); B16-F10 in C57BL/6 mice, PTX 10 mg/kg i.v. every 4 days x4, vs control group) was “slower than that of the control group” and the “tumor growth compared to the vehicle control group” value (melanoma (B16F10); B16-F10 s.c. in C57BL/6 mice, PTX 10 mg/kg i.v. once every 4 days, 4 doses, to DAY 15) was “significantly inhibited tumor growth”. The “proportion of neutrophils in tumor tissues” value [1] was “significant decrease”.
